US20050230662A1, “Diaminostilbene derivatives” (priority 1999, published 2005)

Experiment: evaluation of solubility in water (dissolving at 40° C., then deposition on ice bath at 0° C.)
Assay type: physicochemical
Settings: for Solubility of 0° C.: time to deposition, aqueous solution (20 g/100 mL) on ice bath under stirring; for Solubility at 40° C.: time to dissolve 20 g sample in 100 mL water on warm bath at 40° C., stirred
Procedure: Compounds I-1, I-2, I-4, I-11, I-12, and I-22 obtained above, and the Comparison Compounds a, b, c and d were subjected to evaluation of solubility in water.
Water (100 mL) was added to 20 g of each sample, and the mixture was placed on a warm bath (at 40° C.), and stirred using a magnetic stirrer, so that the added sample was dissolved in the warm water. Then, the obtained aqueous solution was placed on an ice bath under stirring.

Solubility of 0° C.	Solubility at 40° C.	SMILES
No deposition within 180 sec.	dissolved within 120 sec.	O=S(=O)([O-])CCNc1nc(NCC(O)CO)nc(Nc2ccc(C=Cc3ccc(Nc4nc(NCCS(=O)(=O)[O-])nc(NCC(O)CO)n4)cc3S(=O)(=O)[O-])c(S(=O)(=O)[O-])c2)n1.[Na+].[Na+].[Na+].[Na+] (stereo not shown) [Comp. I-1]
No deposition within 180 sec.	–	O=S(=O)([O-])CCNc1nc(NCCC(O)CO)nc(Nc2ccc(C=Cc3ccc(Nc4nc(NCCC(O)CO)nc(NCCS(=O)(=O)[O-])n4)cc3S(=O)(=O)[O-])c(S(=O)(=O)[O-])c2)n1.[Na+].[Na+].[Na+].[Na+] (stereo not shown) [Comp. I-4]
No deposition within 180 sec.	dissolved within 120 sec.	O=S(=O)([O-])CCNc1nc(NCCOCCO)nc(Nc2ccc(C=Cc3ccc(Nc4nc(NCCOCCO)nc(NCCS(=O)(=O)[O-])n4)cc3S(=O)(=O)[O-])c(S(=O)(=O)[O-])c2)n1.[Na+].[Na+].[Na+].[Na+] [Comp. I-11]
–	some insoluble remained at 300 sec.	O=S(=O)([O-])CCNc1nc(NCCCO)nc(Nc2ccc(C=Cc3ccc(Nc4nc(NCCCO)nc(NCCS(=O)(=O)[O-])n4)cc3S(=O)(=O)[O-])c(S(=O)(=O)[O-])c2)n1.[Na+].[Na+].[Na+].[Na+] [Comp. a, reference compound]
–	some insoluble remained at 300 sec.	CC(C)(CO)CNc1nc(NCCS(=O)(=O)[O-])nc(Nc2ccc(C=Cc3ccc(Nc4nc(NCCS(=O)(=O)[O-])nc(NCC(C)(C)CO)n4)cc3S(=O)(=O)[O-])c(S(=O)(=O)[O-])c2)n1.[Na+].[Na+].[Na+].[Na+] [Comp. b, reference compound]
